{"source": "patent US6403575B1", "about": "“3-Pyridyl enantiomers and their use as analgesics” (Abbott Laboratories, priority 1996, dated 2002)", "key": {"[1]": {"system": "rats", "assay": "Chung Model of Neuropathic Pain following repeated dosing", "format": "in vivo", "details": "rat", "procedure": "Animals were surgically prepared as described above for the Chung model. For assessment of each test compound, two treatment groups (6 animals each) were established. One group was injected (i.p.) with test compound twice daily for 5 days, and the other group was injected on the same schedule with saline. Responses to von Frey hairs were assessed as described above both before, and 15 minutes after, injection on the first 2 days and also on the 5th day. The saline-treatment group was given saline for the first 4 days and on the morning of the 5th day, but received a challenge of the test compound in the afternoon of the fifth day."}, "[2]": {"system": "mice", "assay": "Mouse Hot Plate Paradigm", "format": "in vivo", "details": "ip, 0.5 h, i.p., 30 minutes prior to testing, 55° C., read-out: MED Hot plate model (μmol/kg, i.p.)"}, "[3]": {"target": "neuromuscular junction nicotinic acetylcholine receptor (Tetronarce californica, UniProt P02710+P02714+P02718)", "sequence (P02714 18-506)": "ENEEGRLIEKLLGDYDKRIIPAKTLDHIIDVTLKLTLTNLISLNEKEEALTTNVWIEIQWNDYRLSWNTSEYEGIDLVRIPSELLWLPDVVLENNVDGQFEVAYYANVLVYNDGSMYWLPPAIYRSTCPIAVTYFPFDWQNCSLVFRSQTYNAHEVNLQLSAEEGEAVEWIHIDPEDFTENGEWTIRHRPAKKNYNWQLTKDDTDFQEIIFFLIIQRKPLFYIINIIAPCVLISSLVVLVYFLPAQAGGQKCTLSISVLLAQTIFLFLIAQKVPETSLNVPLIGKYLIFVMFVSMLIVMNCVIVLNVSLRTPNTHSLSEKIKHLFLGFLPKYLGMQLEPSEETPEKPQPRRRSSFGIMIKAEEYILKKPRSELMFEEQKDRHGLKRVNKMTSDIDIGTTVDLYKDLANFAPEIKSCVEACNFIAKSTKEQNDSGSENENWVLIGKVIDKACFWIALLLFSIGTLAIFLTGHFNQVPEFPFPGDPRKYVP", "sequence (P02710 25-461)": "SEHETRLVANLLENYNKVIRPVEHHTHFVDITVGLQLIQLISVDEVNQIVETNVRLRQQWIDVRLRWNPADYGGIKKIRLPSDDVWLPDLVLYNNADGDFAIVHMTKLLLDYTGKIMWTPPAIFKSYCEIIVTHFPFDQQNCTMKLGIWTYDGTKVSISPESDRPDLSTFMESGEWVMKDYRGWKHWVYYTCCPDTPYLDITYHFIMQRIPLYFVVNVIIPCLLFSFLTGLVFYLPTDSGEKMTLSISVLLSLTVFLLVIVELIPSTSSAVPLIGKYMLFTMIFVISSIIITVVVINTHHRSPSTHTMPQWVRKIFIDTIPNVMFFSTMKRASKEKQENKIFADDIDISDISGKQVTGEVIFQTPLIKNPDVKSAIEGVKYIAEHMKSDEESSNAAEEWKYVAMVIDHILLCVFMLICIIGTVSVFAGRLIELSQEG", "sequence (P02712 25-493, further chain)": "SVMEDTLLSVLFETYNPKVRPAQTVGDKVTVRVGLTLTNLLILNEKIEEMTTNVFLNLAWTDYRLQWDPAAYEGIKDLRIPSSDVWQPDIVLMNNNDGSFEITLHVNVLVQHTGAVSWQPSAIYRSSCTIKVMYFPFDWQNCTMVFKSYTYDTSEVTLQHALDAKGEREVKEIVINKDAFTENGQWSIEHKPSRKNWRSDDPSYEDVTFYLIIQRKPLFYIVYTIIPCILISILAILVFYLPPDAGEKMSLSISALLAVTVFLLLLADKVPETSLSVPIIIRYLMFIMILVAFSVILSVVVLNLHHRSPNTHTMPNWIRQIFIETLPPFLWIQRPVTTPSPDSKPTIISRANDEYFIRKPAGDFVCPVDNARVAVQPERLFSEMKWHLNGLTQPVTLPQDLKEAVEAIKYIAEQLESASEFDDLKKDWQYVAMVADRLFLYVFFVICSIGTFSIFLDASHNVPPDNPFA", "sequence (P02718 22-522)": "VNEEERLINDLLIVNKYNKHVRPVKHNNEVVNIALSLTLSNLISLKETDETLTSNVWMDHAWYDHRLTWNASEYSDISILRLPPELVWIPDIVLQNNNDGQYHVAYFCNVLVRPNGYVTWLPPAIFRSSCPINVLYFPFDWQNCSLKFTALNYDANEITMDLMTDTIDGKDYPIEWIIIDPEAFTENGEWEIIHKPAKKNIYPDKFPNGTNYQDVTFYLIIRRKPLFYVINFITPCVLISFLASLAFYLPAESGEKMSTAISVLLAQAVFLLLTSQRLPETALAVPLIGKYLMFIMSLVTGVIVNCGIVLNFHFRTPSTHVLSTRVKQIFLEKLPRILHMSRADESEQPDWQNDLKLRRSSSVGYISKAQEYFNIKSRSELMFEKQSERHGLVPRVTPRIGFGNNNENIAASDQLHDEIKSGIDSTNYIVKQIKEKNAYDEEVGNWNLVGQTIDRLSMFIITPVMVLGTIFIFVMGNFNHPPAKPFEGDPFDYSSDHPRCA", "assay": "biochemical", "format": "binding, Torpedo Californica"}, "[4]": {"system": "rats", "assay": "Carrageenan paw edema model", "format": "in vivo", "details": "rat, i.p."}, "[5]": {"target": "T1, peripheral ganglionic receptors (Homo sapiens, UniProt P30926+P32297)", "T1 construct": "Cells of the IMR-32 human neuroblastoma clonal cell line (ATCC, Rockville, Md.); host or cells: IMR-32 human neuroblastoma cells", "T1 sequence (P32297 32-505)": "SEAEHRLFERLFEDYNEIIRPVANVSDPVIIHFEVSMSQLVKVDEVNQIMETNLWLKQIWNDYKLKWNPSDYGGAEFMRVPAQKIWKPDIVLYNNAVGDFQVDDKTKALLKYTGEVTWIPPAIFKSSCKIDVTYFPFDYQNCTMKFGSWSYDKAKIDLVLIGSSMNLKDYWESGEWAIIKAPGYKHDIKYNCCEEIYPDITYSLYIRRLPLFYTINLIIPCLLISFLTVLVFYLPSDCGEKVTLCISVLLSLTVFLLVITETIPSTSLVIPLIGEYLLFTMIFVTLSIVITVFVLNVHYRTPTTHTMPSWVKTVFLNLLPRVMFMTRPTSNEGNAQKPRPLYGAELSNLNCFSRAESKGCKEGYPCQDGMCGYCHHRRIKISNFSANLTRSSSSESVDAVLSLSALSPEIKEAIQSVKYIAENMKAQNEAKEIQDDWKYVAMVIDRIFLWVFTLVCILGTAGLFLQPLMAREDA", "T1 sequence (P30926 22-498)": "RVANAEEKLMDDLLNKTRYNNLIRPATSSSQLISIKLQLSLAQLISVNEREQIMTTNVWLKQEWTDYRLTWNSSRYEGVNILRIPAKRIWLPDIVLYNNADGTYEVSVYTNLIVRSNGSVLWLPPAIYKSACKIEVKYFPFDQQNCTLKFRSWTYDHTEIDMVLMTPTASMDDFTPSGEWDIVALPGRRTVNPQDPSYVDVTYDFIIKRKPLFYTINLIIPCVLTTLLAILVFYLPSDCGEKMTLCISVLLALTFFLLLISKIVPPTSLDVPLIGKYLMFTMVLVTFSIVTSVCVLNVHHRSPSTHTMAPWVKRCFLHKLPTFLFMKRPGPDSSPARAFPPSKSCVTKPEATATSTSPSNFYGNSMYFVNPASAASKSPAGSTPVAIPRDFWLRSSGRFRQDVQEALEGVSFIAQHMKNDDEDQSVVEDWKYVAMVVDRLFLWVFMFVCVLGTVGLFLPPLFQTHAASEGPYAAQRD", "assay": "86Rb+ flux activation in IMR-32 human neuroblastoma cells", "format": "cell-based", "details": "1 μM compound, % of maximum response to (S)-nicotine", "procedure": "Protocol for the Determination of Ability of Nicotinic Acetylcholine Receptor Ligands to Activate Peripheral Ganglionic Receptors\nCells of the IMR-32 human neuroblastoma clonal cell line (ATCC, Rockville, Md.) were maintained in a log phase of growth according to established procedures. Experimental cells were seeded at a density of 500,000 cells/mL into a 24-well tissue culture dish. Plated cells were allowed to proliferate for at least 48 hours before loading with 2 μCi/mL of ^86Rb^+ (35 Ci/mmol) overnight at 37° C. The ^86Rb^+ efflux assays were performed according to previously published protocols (Lukas, R. J., J. Pharmacol. Exp. Ther., 265: 294-302, 1993) except serum-free Dulbecco's Modified Eagle's Medium was used during the ^86Rb^+ loading, rinsing, and agonist-induced efflux steps. Data reflect the activation of ^86Rb^+ flux at a concentration of 1 μM, and reflect the response as a percentage of the maximum response elicited by (S)-nicotine."}, "[6]": {"system": "rats", "assay": "Chung Model of Neuropathic Pain", "format": "in vivo", "details": "rat, 50% threshold to VonFrey hairs"}, "[7]": {"target": "T2, neuronal nicotinic acetylcholine receptors (Rattus norvegicus, UniProt P09483+P12390)", "T2 construct": "crude synaptic membrane preparations from whole rat brain; from tissue; host or cells: whole rat brain, crude synaptic membranes", "T2 sequence (P09483 31-630)": "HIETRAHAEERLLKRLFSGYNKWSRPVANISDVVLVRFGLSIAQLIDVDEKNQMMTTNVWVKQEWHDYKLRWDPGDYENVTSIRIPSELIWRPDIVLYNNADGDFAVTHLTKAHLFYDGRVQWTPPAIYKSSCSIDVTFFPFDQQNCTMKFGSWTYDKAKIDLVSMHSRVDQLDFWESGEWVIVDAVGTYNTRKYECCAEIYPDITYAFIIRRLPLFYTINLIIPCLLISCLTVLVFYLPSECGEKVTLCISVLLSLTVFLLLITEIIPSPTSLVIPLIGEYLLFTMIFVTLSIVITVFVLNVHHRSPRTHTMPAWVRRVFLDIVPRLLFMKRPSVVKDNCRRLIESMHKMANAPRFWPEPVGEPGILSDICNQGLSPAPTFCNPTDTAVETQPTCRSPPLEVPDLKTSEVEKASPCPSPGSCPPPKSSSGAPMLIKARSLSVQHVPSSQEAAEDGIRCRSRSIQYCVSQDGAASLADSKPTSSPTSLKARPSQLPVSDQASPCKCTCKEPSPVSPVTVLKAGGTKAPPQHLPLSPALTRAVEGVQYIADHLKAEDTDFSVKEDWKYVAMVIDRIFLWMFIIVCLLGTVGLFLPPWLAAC", "T2 sequence (P12390 25-500)": "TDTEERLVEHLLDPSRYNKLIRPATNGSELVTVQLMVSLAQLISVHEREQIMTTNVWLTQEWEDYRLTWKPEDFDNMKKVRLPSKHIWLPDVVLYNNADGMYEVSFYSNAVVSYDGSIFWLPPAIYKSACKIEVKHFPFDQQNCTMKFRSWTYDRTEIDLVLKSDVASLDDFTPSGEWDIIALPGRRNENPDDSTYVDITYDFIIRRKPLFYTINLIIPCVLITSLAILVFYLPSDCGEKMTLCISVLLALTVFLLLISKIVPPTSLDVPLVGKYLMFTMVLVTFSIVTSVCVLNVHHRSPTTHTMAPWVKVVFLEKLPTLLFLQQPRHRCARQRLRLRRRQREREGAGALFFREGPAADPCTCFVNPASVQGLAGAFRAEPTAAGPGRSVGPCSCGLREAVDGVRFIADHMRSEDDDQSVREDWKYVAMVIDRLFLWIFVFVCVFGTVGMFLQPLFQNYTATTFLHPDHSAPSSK", "assay": "[3H]-cytisine binding to neuronal nicotinic acetylcholine receptors, whole rat brain membranes", "details": "[3H]-cytisine 1.25 nM, whole rat brain membranes; read-out: [3H] CYT Ki", "in_short": "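Crude synaptic membranes from whole rat brain (125-150 μg protein) incubated with test compound and 1.25 nM [3H]-cytisine for 60 min at 4 °C in Tris-Cl buffer pH 7.4 with Na/K/Mg/Ca salts. Filtration through PEI-soaked filters; nonspecific binding with 10 μM (−)-nicotine; values as percentage of total binding.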"}, "[8]": {"system": "rats", "assay": "Formalin Model of Persistent Pain", "format": "in vivo", "details": "rat, oral, 0.1-0.3 umol/kg, 15 minutes prior to formalin, second phase"}, "[9]": {"system": "rat spinal cord cultures", "assay": "Neuroprotection against substance P or glutamate toxicity in primary spinal cord cultures (LDH release)", "format": "cell-based", "details": "rat spinal cord cultures"}, "[10]": {"system": "mice", "details": "mouse, in vivo, ip", "procedure": "Compounds were co-mixed in a syringe, and co-administered via the intraperitoneal route 30 min prior to testing in the mouse hot-plate paradigm as indicated above. Separate groups of animals (n=7-8/group) were used for each dose group."}}, "note": "“Also recorded” adds a separate entry of the source. Structures can show the parent of a compound that is named as a salt.", "data": [{"smiles": "Clc1ccc(OC[C@H]2CCN2)cn1", "note": "[Example 4, 5-((2R)-Azetidinylmethyloxy)-2-chloropyridine hydrochloride]", "values": [{"measurement": "anti-allodynic effects during each test session", "setting": "[1]; 0.3 μmol/kg, i.p., b.i.d., 5 days", "value": "Significant anti-allodynic effects"}, {"measurement": "anti-allodynic effect following repeated dosing", "setting": "[1]; in vivo, ip", "value": "does not decrease following repeated dosing"}, {"measurement": "minimal effective dose", "setting": "[2]", "value": 0.62, "unit": "µmol/kg"}, {"measurement": "Ki", "setting": "[3]", "value": 16.6, "unit": "µM"}, {"measurement": "reduced affinity for the neuromuscular junction nicotinic acetylcholine receptor", "setting": "[3]", "value": 12.8, "unit": "fold"}, {"measurement": "ED30 reduction of carrageenan-induced paw edema", "setting": "[4]", "value": 0.21, "unit": "µmol/kg"}, {"measurement": "efficacy to reduce paw edema compared with dexamethasone", "setting": "[4]; hydrochloride", "value": "as effective as dexamethansone; also recorded: as efficacious as dexamethasone"}, {"measurement": "IMR-32 % maximal nicotine response at 1 μM Cmpd conc'n", "setting": "[5]", "value": 97, "unit": "%"}, {"measurement": "MED Chung model (μmol/kg, i.p.)", "setting": "[6]", "value": 0.3, "unit": "µmol/kg"}, {"measurement": "Ki", "setting": "[7]", "value": 0.05, "unit": "nM"}, {"measurement": "antinociceptive effects in the Formalin Model", "setting": "[8]", "value": "produced significant antinociceptive effects"}, {"measurement": "protection against SP- and Glu-induced neurotoxicity", "setting": "[9]; SP 30 μM or Glu 300 μM, hydrochloride", "value": "protects against SP-induced neurotoxicity; also recorded: reduces both SP and Glu-induced neurotoxicity"}, {"measurement": "EC50", "setting": "[9]; SP and Glu-induced neurotoxicity", "value": 10, "unit": "µM"}, {"measurement": "antinociceptive activity combined with effective doses of morphine", "setting": "[10]", "value": "enhanced antinociceptive activity"}, {"measurement": "antinociceptive activity combined with subthreshold doses of morphine", "setting": "[10]", "value": "can produce effective antinociceptive activity"}, {"measurement": "antinociceptive effects when coadministered with morphine", "setting": "[10]", "value": "produced effective antinociceptive effects"}]}]}
